Source: patent US10023839B2, “Anti-tumour vaccine derived from normal cells” (Cytovac A/S, priority 2007, dated 2018)

Test system: cancer/testis antigens (MAGE-A1, -A3, -A4, -A6, -A10, -A12, NY-ESO-1, GAGE-3-7, BORIS) in proliferating lymphocytes
Test: RT-PCR analysis of cancer/testis antigen expression in 5-Aza-CdR-treated proliferating lymphocytes

**Q.** What does the source list for Nc1ncn([C@H]2C[C@H](O)[C@@H](CO)O2)c(=O)n1 [Culture 5-Aza-CdR, 5-Aza-2′-deoxycytidine]?
**A.** induction of CTA expression (RT-PCR) (10 μM 5-aza-2′-deoxycytidine, 150 IU/ml IL-2, 3 days, lymphocytes expanded with autologous mature dendritic cells): all the investigated antigens are present in the induced lymphocytes; CTA expression, cultures from log phase of growth (day 8) versus plateau (day 10) (10 μM 5-aza-2′-deoxycytidine, 3 days): higher expression in cultures taken from log phase of growth; most easily inducible CTA (preliminary experiments on kinetics and concentration dependence (not shown)): MAGE-A1, MAGE-A4 and MAGE-A12
